From patent publication US10111853B2, “Compounds, compositions, and methods for the treatment of cancers” (PLACON THERAPEUTICS, INC., priority 2012, dated 2018)

How the values were obtained:
[1] = Drug load (gravimetric, GF-AAS) and encapsulation efficiency of nanoparticles; format: physicochemical; settings: for Max DL, %: maximum drug load; for Max DL, % / Max EE, %: according to Example 11; for Max EE, %: maximum encapsulation
Procedure: The polymer composition was varied by the ratio of the PLA or PLGA polymer to PLA-PEG or PLGA-PEG copolymer, as well as the PLA molecular weight (25-109 kDa). […] The oil phase was then slowly added to the continuously stirred aqueous phase containing an emulsifier (such as polysorbate 80 a.k.a. Tween® 80) at 10/90% or 20/80% v/v oil/water ratio and a coarse emulsion was prepared using a rotor-stator homogenizer or an ultrasound bath. The course emulsion was then processed through a high-pressure homogenizer (operated at 5,000 or 10,000 psi) for N=2 or 4 passes to form a nanoemulsion. In process (2) the polymers and the drug were dissolved in an organic solvent miscible with water (such as acetone) and added slowly to a continuously stirred aqueous phase with or without a stabilizer (such as polysorbate 80). In both processes (1) and (2) the nanoemulsion formed was quenched (by 5- or 10-fold dilution with cold (0-5° C.) or room temperature deionized water) to remove the major portion of the organic solvent resulting in hardening of the emulsion droplets and formation of a nanoparticle suspension, which was then concentrated and purified with deionized water containing or not surfactants using tangential flow filtration (500 kDa MWCO, mPES membranes).
The actual drug load was determined gravimetrically by transferring 1 mL of the nanoparticle suspension to a 4 mL glass vial and drying under vacuum on a Rotavapor® to determine the amount of total remaining solids. The drug content was then determined by reconstituting the dried sample in an organic solvent (such as N′N′-dimethylformamide) and measuring the total amount of platinum using graphite furnace atomic adsorption spectroscopy (GF-AAS). Encapsulation efficiency was calculated as the ratio between the actual and the theoretical drug load. The yield was determined based on the ratio between the encapsulated and used compound amounts. In-vitro release was studied by incubating the nanoparticle suspension in phosphate buffered saline (PBS) containing a solubilizer such as 1% hydroxypropyl beta cyclodextrin for 24 h at 37° C. mixed continuously in a water shaking bath. Samples were taken at different time points and spun with an ultracentrifuge at 1,000,000×g to separate the nanoparticles from the dissolution medium. The supernatant was then analyzed using GF-AAS or HPLC to determine the active content as a function of time.

[2] = Mouse PK/PD study, tumor platinum levels by ICP-MS; set-up: species or system nude mice; settings: in vivo, iv, 4 mg/kg
Procedure: To examine the ability of compounds to accumulate in tumors, a murine cancer model was used. Animals were inoculated with 5×10^5 H460 […] lung cancer cells via subcutaneous injection to the flank. Tumors were allowed to reach an approximate volume of ˜500 mm^3. Animals were then randomized into treatment groups of 3 animals per time point and were dosed at 4 mg/kg. The 24 hour time point was used as a benchmark across compounds.
Tumors were excised from animals and dissolved in fuming nitric acid (60% w/w) by adding four parts nitric acid to 1 part tumor w/w and heating overnight at 60 degrees Centigrade. The resulting digest was diluted 1:10 in ICP-MS analysis buffer (1% nitric acid, 2% Triton x-100), and directly introduced into the ICP-MS unit by peristaltic pump. The end dilution factor for the samples as introduced to the ICP-MS was 50×.

Row | Structure (SMILES) | Max DL, % [1] | Max EE, % [1] | encapsulation efficiency (in words) ([1]; statement on Table 4) | maximum drug loading (in words) ([1]; statement on Table 4) | platinum levels in the tumor, nanoparticle suspension versus free compound [2]
1 | CC(C)(C)CC(C)(C)NC(=O)[O][Pt]([NH2])([NH2])([Cl])([Cl])[O]C(=O)NC(C)(C)CC(C)(C)C [Compound 29] | 5.9% | 59% | increased encapsulation efficiency | increased maximum drug loading | higher platinum levels in the tumors when the corresponding compound was dosed as a nanoparticle suspension than as a free compound
2 | CCCCCC(=O)[O][Pt]([NH2])([NH2])([Cl])([Cl])[O]C(=O)CCCCC [reference compound] | 0.55% | 2.8% | – | – | –
